The values below come from paper PMC7056829, “Reversal Effect of ALK Inhibitor NVP-TAE684 on ABCG2-Overexpressing Cancer Cells” (Frontiers in Oncology, 2020).

The target of series [1] is T1, ABCG2 (Homo sapiens, UniProt Q9UNQ0).
T1 sequence (Q9UNQ0 1-655): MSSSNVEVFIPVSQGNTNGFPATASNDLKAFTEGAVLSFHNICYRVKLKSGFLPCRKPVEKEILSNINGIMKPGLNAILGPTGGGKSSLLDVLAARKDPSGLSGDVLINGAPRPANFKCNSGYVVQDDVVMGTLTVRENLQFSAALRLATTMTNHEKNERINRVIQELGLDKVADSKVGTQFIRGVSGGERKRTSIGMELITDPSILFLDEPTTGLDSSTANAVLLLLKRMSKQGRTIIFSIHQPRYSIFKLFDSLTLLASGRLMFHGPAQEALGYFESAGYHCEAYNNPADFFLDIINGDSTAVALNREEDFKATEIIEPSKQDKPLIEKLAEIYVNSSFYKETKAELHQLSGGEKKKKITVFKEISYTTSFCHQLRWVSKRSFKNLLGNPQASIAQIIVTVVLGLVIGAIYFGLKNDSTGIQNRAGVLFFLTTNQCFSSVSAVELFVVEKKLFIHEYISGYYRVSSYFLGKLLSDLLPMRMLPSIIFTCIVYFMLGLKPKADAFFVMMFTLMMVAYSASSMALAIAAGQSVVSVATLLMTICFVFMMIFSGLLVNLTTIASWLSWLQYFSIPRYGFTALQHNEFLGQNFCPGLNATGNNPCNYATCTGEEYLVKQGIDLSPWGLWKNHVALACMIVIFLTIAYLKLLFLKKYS

Series [2] concerns the target T1, ABCG2. Briefly: ATPase stimulation in ABCG2-overexpressing membrane vesicles. It is filed as biochemical. Set-up: ABCG2 membrane vesicles that overexpressed ABCG2.

`O=C1c2c(O)ccc(O)c2C(=O)c2c(NCCNCCO)ccc(NCCNCCO)c21` [Mitoxantrone]: on ABCG2 [1], the “[3H]-mitoxantrone accumulation and efflux in NCI-H460/MX20 versus parental NCI-H” value is “NVP-TAE684 significantly reduced the extrusion of [^3H]-mitoxantrone in NCI-H460/MX20 cells”.
In turn, `COc1cc(N2CCC(N3CCN(C)CC3)CC2)ccc1Nc1ncc(Cl)c(Nc2ccccc2S(=O)(=O)C(C)C)n1` [NVP-TAE684] had a concentration for a half-maximal effect (EC50) at ABCG2 [2] of 91 nM.

One may read the EC50 as the midpoint of the concentration-response curve. The low end stands for higher potency in that assay, the high end for lower potency in that assay.
